Test results as given in publication PMC5920688 (Journal of veterinary pharmacology and therapeutics, 2017).
“Also recorded” adds a separate entry of the source.

Legend:
horses [1] = settings: 4 mg/kg i.v., ref Toutain et al., 1994; cited from earlier work
horses [2] = settings: clinical cases, ref Johnson et al., 1993, Raekallio et al., 1997; cited from earlier work
[3] = system: equine soluble epoxide hydrolase (sEH); settings: ref Guedes et al., 2016, cited from earlier work
[4] = Plasma pharmacokinetics of t-TUCB after intravenous administration; type: in vivo, horses; settings: for AUClast (h*ng/mL)/dose: dose-corrected; for AUClast (h*ng/mL)/dose / Clast (last measured plasma concentration) / Tlast (time of last measured plasma concentration) / λz lower / λz upper: mean ± SEM; for Plasma kinetics (order): preliminary
[5] = system: horses with lipopolysaccharide-induced radiocarpal synovitis; type: in vivo
horses [6] = experiment: Physical exam variables, hematology and serum biochemistry; type: in vivo
[7] = Synovial fluid t-TUCB concentrations after intravenous administration; type: in vivo; settings: horses, i.v., 1 mg/kg
rats = settings: doses as low as 0.1 mg/kg, ref Wagner et al., 2013; cited from earlier work
[8] = system: horses with lipopolysaccharide-induced radiocarpal synovitis; experiment: Pain; type: in vivo; settings: for Horses qualifying for rescue analgesia if only VAS > 50 at rest had been used: control 5/6; for Proportion of positive-to-negative responses to touch (tactile allodynia): control 1.7; for AUC of AAEP lameness scores compared to control / AUC of visual analog pain scores compared to control: first 12 h and entire 48 h
[9] = Thoroughbred, Quarter Horse, Dutch Warmblood (mixed group), plasma, iv, 1 mg/kg
[10] = Thoroughbred, Quarter Horse, Dutch Warmblood, plasma, iv, 0.1 mg/kg
[11] = Thoroughbred, Quarter Horse, Dutch Warmblood, plasma, iv, 0.3 mg/kg
[12] = horses, i.v., 0.1 mg/kg, plasma
[13] = horses, i.v., 0.3 mg/kg, plasma

CCCCC1C(=O)N(c2ccccc2)N(c2ccccc2)C1=O [phenylbutazone]
Analgesic effects in carpal Freund's adjuvant arthritis model (horses [1]): not readily demonstrated; also recorded: could not be demonstrated
Duration of post-surgical analgesia (horses [2]): < 12 h

O=C(Nc1ccc(OC(F)(F)F)cc1)N[C@H]1CC[C@H](Oc2ccc(C(=O)O)cc2)CC1 [t-TUCB, trans-4-{4-[3-(4-Trifluoromethoxy-phenyl)-ureido]-cyclohexyloxy}-benzoic acid]
In vitro 95% inhibitory concentration (IC95) ([3]; equine sEH): 0.0964 µg/mL
Potency against equine sEH compared to rat sEH ([3]; in vitro, Wagner et al., 2013): approximately 3 fold
Vd [4, 9]: 0.571 ± 0.104 L/kg
clearance [4, 9]: 0.233 mL/min/kg
half-life [4, 9]: 24 ± 5 h
AUC(0-inf) [4, 10]: 2000 ± 530 ng·h/mL
AUC(0-t) [4, 10]: 1610 ± 360 ng·h/mL
AUC(0-inf) [4, 11]: 6370 ± 526 ng·h/mL
AUC(0-t) [4, 11]: 5840 ± 488 ng·h/mL
AUC(0-t) ([4]; Thoroughbred, Quarter Horse, Dutch Warmblood, plasma, iv, 1 mg/kg): 50100 ± 5600 ng·h/mL
AUClast (h*ng/mL)/dose ([4]; horses, i.v., 0.1 mg/kg): 16066±3595^a h*ng/mL
AUClast (h*ng/mL)/dose ([4]; horses, i.v., 0.3 mg/kg): 19467±1625^a h*ng/mL
AUClast (h*ng/mL)/dose ([4]; horses, i.v., 1 mg/kg): 50139±5604^b h*ng/mL
Plasma concentrations ([4]; horses, i.v., 0.03 mg/kg): undetectable or very low
Clast (last measured plasma concentration) [4, 12]: 17 ± 5 ng/mL
Tlast (time of last measured plasma concentration) [4, 12]: 38 ± 5 h
λz lower [4, 12]: 8 ± 4 h
λz upper [4, 12]: 38 ± 5 h
Clast (last measured plasma concentration) [4, 13]: 29 ± 3 ng/mL
Tlast (time of last measured plasma concentration) [4, 13]: 48 ± 0 h
λz lower [4, 13]: 11 ± 5 h
λz upper [4, 13]: 48 ± 0 h
Clast (last measured plasma concentration) ([4]; horses, i.v., 1 mg/kg, plasma): 538 ± 76 ng/mL
Tlast (time of last measured plasma concentration) ([4]; horses, i.v., 1 mg/kg, plasma): 48 ± 0 h
λz lower ([4]; horses, i.v., 1 mg/kg, plasma): 14 ± 5 h
λz upper ([4]; horses, i.v., 1 mg/kg, plasma): 48 ± 0 h
Plasma kinetics (order) ([4]; horses, i.v., 0.1 and 0.3 mg/kg): linear or first order plasma kinetics
Plasma kinetics (order) ([4]; horses, i.v., highest dose (1 mg/kg)): may have approached a non-linear or zero order kinetics
clearance ([4]; plasma, iv, 0.1 mg/kg): 1.13 mL/min/kg
clearance ([4]; plasma, iv, 0.3 mg/kg): 0.8 mL/min/kg
AUC(0-inf) ([4]; plasma, iv, 1 mg/kg): 71100 ± 5780 ng·h/mL
clearance ([4]; plasma, iv, 1 mg/kg): 0.233 mL/min/kg
half-life ([4]; plasma, iv, 1 mg/kg): 24 ± 5 h
Carpus circumference compared to control ([5]; 1 mg/kg i.v., at 36 h): reaching statistical significance
Anti-inflammatory activity (inflammatory cell numbers, joint effusion, protein concentration) ([5]; 0.1-1 mg/kg i.v.): no important anti-inflammatory effects; also recorded: negligible anti-inflammatory activity
Carpus circumference compared to the remaining treatments ([5]; 0.3 and 1 mg/kg i.v.): increased slightly less
Adverse effects on physical and laboratory examinations (horses [6]; 0.03-1 mg/kg i.v.): No adverse effects were observed
Effect of treatment on respiratory rate, heart rate and mean arterial pressure (horses [6]; 0.1, 0.3 and 1 mg/kg i.v., after LPS): not of treatment
Hematology and serum biochemistry results (horses [6]; all treatments (0.03-1 mg/kg i.v.)): within the normal laboratory reference range
Synovial fluid concentrations reached [7]: high concentrations
Synovial fluid t-TUCB concentration, inflamed compared to non-inflamed joint [7]: significantly higher
Mechanical hyperalgesia to intra-plantar LPS (rats): significantly attenuated
Horses qualifying for rescue analgesia if only VAS > 50 at rest had been used ([8]; 0.03 mg/kg i.v.): 5/6
Proportion of positive-to-negative responses to touch (tactile allodynia) ([8]; 0.1 mg/kg i.v.): 0.8
Horses qualifying for rescue analgesia if only VAS > 50 at rest had been used ([8]; 0.1 mg/kg i.v.): 4/6
Proportion of positive-to-negative responses to touch (tactile allodynia) ([8]; 0.3 mg/kg i.v.): 1.3
Horses qualifying for rescue analgesia if only VAS > 50 at rest had been used ([8]; 0.3 mg/kg i.v.): 1/4
Proportion of positive-to-negative responses to touch (tactile allodynia) ([8]; 1 mg/kg i.v.): 0.2
Horses qualifying for rescue analgesia if only VAS > 50 at rest had been used ([8]; 1 mg/kg i.v.): 2/5
AUC of AAEP lameness scores compared to control ([8]; 1 mg/kg i.v.): significantly lower
AUC of visual analog pain scores compared to control ([8]; 1 mg/kg i.v.): significantly lower
AUC of AAEP lameness scores compared to control ([8]; 0.1 and 0.3 mg/kg i.v.): not the others
AUC of visual analog pain scores compared to control ([8]; 0.1 and 0.3 mg/kg i.v.): not the others
